These results are taken from ChEMBL document CHEMBL1201862, “PubChem BioAssay data set” (2004).

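Cultured in 96-well plates, cells were exposed to test compound for 48 hours across five concentrations. At the GI50, growth is halved.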 Calls of active or inactive are those of the source. No stated cut-off is given here; in the data, active = GI50 up to about 1.1 µM and inactive = higher.

Test systems include SNB-19; IGROV-1; ACHN; SW-620; SF-295; HCT-15; U-251; SN12C; RPMI-8226; UACC-257; SF-539; NCI-H522; HCT-116; OVCAR-8; LOX IMVI; MOLT-4; SK-MEL-5; KM12; NCI-H226; CAKI-1.
Common to all, as to test: inhibition of tumour cell growth, NCI panel, 48 h

For the compound `O=C1C=C/C(=N\c2ccc3c(c2)C(Br)c2ccccc2-3)O1` (configuration not stated), the GI50 in the assay with SNB-19 was > 100 µM (inactive); in the assay with IGROV-1, > 100 µM (inactive); in the assay with ACHN, > 100 µM (inactive); in the assay with SW-620, 27.6 µM (inactive); with SF-295 it was > 100 µM (inactive); in the assay with HCT-15 it was over 100 µM. For the same compound, the GI50 in the assay with U-251 is > 100 µM (inactive); with SN12C, 21.5 µM (inactive); with RPMI-8226, 68.2 µM (inactive); with UACC-257, > 100 µM (inactive); with SF-539 it was > 100 µM (inactive); in the assay on NCI-H522, 25.9 µM (inactive). Moreover, the GI50 in the assay with HCT-116 is > 100 µM (inactive); in the assay with OVCAR-8 it was 72.6 µM (inactive); with LOX IMVI, 45.6 µM (inactive); with MOLT-4, 26.8 µM (inactive).

With `COc1ccc(/C=C2\CNC/C(=C\c3ccc(OC)cc3)C2=O)cc1`, the GI50 with SNB-19 is 80.2 µM (inactive); in the assay with IGROV-1 it was 48.2 µM (inactive); in the assay with ACHN, > 100 µM (inactive); with SK-MEL-5, > 100 µM (inactive); in the assay with SW-620, 15.8 µM (inactive); in the assay on SF-295, 31.1 µM (inactive). Moreover, the GI50 was 15.9 µM (inactive) in the assay with KM12; 27.4 µM with HCT-15; 17.6 µM (inactive) in the assay on U-251; 37.1 µM (inactive) in the assay with SN12C; 15.6 µM (inactive) with RPMI-8226; 75.3 µM (inactive) in the assay with UACC-257. The GI50 in the assay with SF-539 was 13.6 µM (inactive); in the assay on HCT-116 it was 3.24 µM (inactive); in the assay with OVCAR-8 it was 16.1 µM (inactive); with LOX IMVI, 4.22 µM (inactive); in the assay with NCI-H226 it was > 100 µM (inactive); in the assay on CAKI-1, 14.1 µM (inactive). Also, the GI50 in the assay with MOLT-4 is 15.8 µM (inactive).

`CCOc1cccc(/C=N/N=C2\C(=O)Nc3c(Cl)cc(Cl)cc32)c1O`: the GI50 with SNB-19 is > 100 µM (inactive); with IGROV-1, 74.8 µM (inactive); with ACHN, > 100 µM (inactive); in the assay on SK-MEL-5 it was 64.4 µM (inactive); with SW-620 it was 75.9 µM (inactive); with SF-295 it was 62.5 µM (inactive). Moreover, the GI50 in the assay with KM12 is > 100 µM (inactive); in the assay with HCT-15, 54.6 µM; in the assay with U-251, 46.5 µM (inactive); in the assay with SN12C it was 73.6 µM (inactive); with UACC-257 it was > 100 µM (inactive); in the assay with SF-539 it was 53.6 µM (inactive). Besides, the GI50 in the assay with HCT-116 is 74.3 µM (inactive); with OVCAR-8, 60.5 µM (inactive); in the assay on LOX IMVI it was 32.5 µM (inactive); in the assay on NCI-H226, > 100 µM (inactive); in the assay on CAKI-1, > 100 µM (inactive); in the assay on MOLT-4, 28.4 µM (inactive).

With `CC(C)(C)C1CCC2c3c([nH]c4ccccc34)C3C(=O)N(c4ccccc4)C(=O)C3C2C1` (configuration not stated), the GI50 in the assay with SNB-19 was 6.59 µM (inactive); with IGROV-1 it was 11.1 µM (inactive); with ACHN, 4.94 µM (inactive); with SK-MEL-5, > 10 µM (inactive); with SW-620 it was 8.34 µM (inactive); in the assay on SF-295 it was 4.86 µM (inactive). Also, the GI50 in the assay with KM12 was 21.4 µM (inactive); in the assay on HCT-15, 22.8 µM; in the assay on U-251, 3.1 µM (inactive); in the assay on SN12C, 5.3 µM (inactive); in the assay with RPMI-8226 it was 7.78 µM (inactive); with SF-539, 8.97 µM (inactive). In addition, the GI50 with OVCAR-8 is 4.84 µM (inactive); in the assay on LOX IMVI, 3.79 µM (inactive); with NCI-H226, 5.82 µM (inactive); in the assay with MOLT-4 it was 3.31 µM (inactive).

As to `O=C(N/C(=C\c1c(O)ccc2ccccc12)c1nc2ccccc2[nH]1)c1ccccc1`, the GI50 with SNB-19 is 53.8 µM (inactive); with IGROV-1 it was > 100 µM (inactive); with ACHN it was > 100 µM (inactive); in the assay with SK-MEL-5, > 100 µM (inactive); in the assay on SW-620 it was > 100 µM (inactive); with KM12, > 100 µM (inactive). Also, the GI50 with HCT-15 was over 100 µM; in the assay with U-251, 79.3 µM (inactive); in the assay with SN12C, 92.7 µM (inactive); in the assay on RPMI-8226 it was > 100 µM (inactive); in the assay on UACC-257, > 100 µM (inactive); in the assay with SF-539, 29.1 µM (inactive). Besides, the GI50 in the assay with NCI-H522 is > 100 µM (inactive); in the assay on HCT-116, > 100 µM (inactive); in the assay with OVCAR-8, 54.8 µM (inactive); with LOX IMVI it was > 100 µM (inactive); in the assay with CAKI-1 it was > 100 µM (inactive); with MOLT-4, > 100 µM (inactive).

As for `CCc1ccc2oc(-c3cc(O)c(-c4nc5cc(CC)ccc5o4)cc3O)nc2c1`, the GI50 in the assay on SNB-19 is > 100 µM (inactive); with IGROV-1, > 100 µM (inactive); in the assay with ACHN, > 100 µM (inactive); with SK-MEL-5, > 100 µM (inactive); with SW-620 it was > 100 µM (inactive); with HCT-15 it was over 100 µM. The GI50 with U-251, in the assay with SN12C, with RPMI-8226, with SF-539, in the assay on HCT-116 and with OVCAR-8 was > 100 µM (inactive) in each case. The GI50 in the assay with LOX IMVI, in the assay with NCI-H226 and with MOLT-4 was > 100 µM (inactive) in each case.

For `CC[C@@H]1/C=C/C=C/C[C@H](C)[C@@H](O)[C@](C)(O)C(=O)[C@H](C)[C@@H](O)[C@H](C)C(=O)[C@H](C)[C@@H](O)[C@H](C)/C=C/C(=O)O[C@H]2[C@@H](C)[C@@H](CC1)O[C@]1(O[C@H](CC(C)O)[C@H](C)CC1=O)[C@@H]2C` (some centres not stated), the GI50 was < 0.0025 µM (active) with SNB-19; 5.22 µM (inactive) with IGROV-1; 2.65 µM (inactive) in the assay with ACHN; < 0.0025 µM (active) in the assay with SK-MEL-5; 5.57 µM (inactive) with SW-620; < 0.0025 µM (active) in the assay with SF-295. For the same compound, the GI50 with KM12 is 3.81 µM (inactive); in the assay on HCT-15, 3.28 µM; in the assay on U-251 it was < 0.0025 µM (active); in the assay with SN12C, 3.74 µM (inactive); in the assay with RPMI-8226, < 0.0025 µM (active); in the assay on UACC-257 it was < 0.0025 µM (active). For the same compound, the GI50 is 4.41 µM (inactive) in the assay with SF-539; < 0.0025 µM (active) with NCI-H522; 2.62 µM (inactive) in the assay on HCT-116; < 0.0025 µM (active) in the assay on OVCAR-8; 3.99 µM (inactive) with LOX IMVI; 3.96 µM (inactive) in the assay with CAKI-1. Also, the GI50 in the assay on MOLT-4 is 3.82 µM (inactive).

`Cc1cccc(N2CCN(S(=O)(=O)c3ccc(Cl)cc3)C2=N)c1C`: the GI50 in the assay on SNB-19 is > 100 µM (inactive); in the assay on IGROV-1 it was 25.1 µM (inactive); in the assay on ACHN, > 100 µM (inactive); in the assay with SK-MEL-5, > 100 µM (inactive); in the assay on SW-620, > 100 µM (inactive); in the assay on SF-295 it was 77.4 µM (inactive). In addition, the GI50 in the assay with KM12, with U-251, with SN12C, in the assay on RPMI-8226, in the assay on UACC-257 and in the assay on SF-539 was > 100 µM (inactive) in each case. Besides, the GI50 is > 100 µM (inactive) with HCT-116; 93.8 µM (inactive) in the assay with OVCAR-8; > 100 µM (inactive) in the assay with NCI-H226; > 100 µM (inactive) with CAKI-1; 35 µM (inactive) in the assay on MOLT-4.

Regarding `CC(C)=CCC[C@@H](C)C1=C(O)C(=O)C(C)=C(c2c(I)c(=O)n(C)c(=O)n2C)C1=O`, the GI50 with SNB-19 was > 100 µM (inactive); in the assay with IGROV-1 it was 60.3 µM (inactive); in the assay on ACHN it was > 100 µM (inactive); in the assay on SW-620, > 100 µM (inactive); with SF-295, > 100 µM (inactive); with KM12 it was > 100 µM (inactive). The GI50 in the assay with HCT-15 was over 100 µM; in the assay on SN12C, > 100 µM (inactive); with RPMI-8226, 61 µM (inactive); in the assay on UACC-257 it was > 100 µM (inactive); in the assay on SF-539, > 100 µM (inactive); with HCT-116 it was > 100 µM (inactive). Also, the GI50 was > 100 µM (inactive) in the assay on OVCAR-8; > 100 µM (inactive) in the assay on LOX IMVI; > 100 µM (inactive) in the assay with NCI-H226; > 100 µM (inactive) in the assay with CAKI-1; 36.8 µM (inactive) with MOLT-4.

Consider `CN1C(=O)c2ccccc2NC(=O)C12O[C@@H]2c1cccc(O)c1` (some centres not stated), for which the GI50 in the assay on SNB-19, in the assay with IGROV-1, with ACHN, in the assay with SK-MEL-5, in the assay with SW-620 and with SF-295 was > 100 µM (inactive) throughout. Moreover, the GI50 is > 100 µM (inactive) in the assay with KM12; over 100 µM in the assay on HCT-15; > 100 µM (inactive) with U-251; > 100 µM (inactive) in the assay on SN12C; > 100 µM (inactive) in the assay on RPMI-8226; > 100 µM (inactive) in the assay with UACC-257. Besides, the GI50 with SF-539, with NCI-H522, in the assay with HCT-116, in the assay on OVCAR-8, in the assay with LOX IMVI and with CAKI-1 was > 100 µM (inactive) throughout. The GI50 in the assay with MOLT-4 is > 100 µM (inactive).

Regarding `C1C2CC3CC1CC(Nc1nc(NC45CC6CC(CC(C6)C4)C5)nc(NC45CC6CC(CC(C6)C4)C5)n1)(C2)C3`, the GI50 with SNB-19 was 43.5 µM (inactive); in the assay on ACHN it was 51.2 µM (inactive); with SK-MEL-5 it was 14.3 µM (inactive); in the assay with SW-620 it was 79.4 µM (inactive); in the assay on SF-295 it was > 56.1 µM (inactive); with KM12 it was 22.1 µM (inactive). Also, the GI50 was 62.1 µM in the assay with HCT-15; 43.8 µM (inactive) in the assay with U-251; > 100 µM (inactive) in the assay on SN12C; 24.5 µM (inactive) in the assay with RPMI-8226; > 28.8 µM (inactive) in the assay on UACC-257; > 100 µM (inactive) with SF-539. For the same compound, the GI50 in the assay on HCT-116 was > 51.9 µM (inactive); with OVCAR-8 it was > 26 µM (inactive); in the assay on LOX IMVI, 11.1 µM (inactive); in the assay with NCI-H226, > 100 µM (inactive); in the assay on CAKI-1, > 100 µM (inactive); in the assay on MOLT-4 it was 57.3 µM (inactive).
